Results reported in the OligoGym collection.
Several values for one entry are separate records, joined by “and”; a condition that tells them apart may be missing. Equal entries are not always repeated. After the bases stand the sugars from the 5' end (letter, count) and the backbone: PS all phosphorothioate, else s phosphorothioate and o phosphodiester by linkage. Methylation of C is not given here. e = 2'-O-(2-methoxyethyl) (MOE); k = constrained ethyl (cEt); d = 2'-deoxy (DNA); m = 2'-O-methyl

Target: HSD17B13
Settings: ASO, HepaRG

Sequence | target mRNA inhibition (1 µM) | also measured
TAAACCCTGGAGCAGC (sugars k3 d10 k3, PS) | 66% | 
TAAACCTTCCCTGTGT (sugars k3 d9 k3 e1, PS) | 23% | 
TAAACCTTCCCTGTGT (sugars k3 d10 k3, PS) | 17% | 
TAAAGCAGGCTACTTT (sugars k3 d10 k3, PS) | 9% | 
TAAAGCTGCCTGCTGA (sugars k3 d10 k3, PS) | 44% | 
TAAAGGTGGGATAAAC (sugars k3 d10 k3, PS) | 0% | 
TAAAGGTTTCTGTTGC (sugars k3 d10 k3, PS) | 66% | target mRNA inhibition (0.02 µM): 0%; target mRNA inhibition (0.078 µM): 9%; target mRNA inhibition (0.313 µM): 32%; target mRNA inhibition (1.25 µM): 67%; target mRNA inhibition (5 µM): 74%
TAAAGTGCTAAGTAGT (sugars k3 d10 k3, PS) | 50% | 
TAACCAATTATATGAG (sugars k3 d10 k3, PS) | 0% | 
TAACTACAAGAGGTTA (sugars k3 d10 k3, PS) | 22% | 
TAACTGAGTTATTCTC (sugars k3 d10 k3, PS) | 41% | 
TAAGATACCCAGGTTG (sugars k3 d9 k3 e1, PS) | 58% | 
TAAGATGTCCAGGCAT (sugars k3 d10 k3, PS) | 17% | 
TAAGCAGAATTGTGAA (sugars k3 d1 m1 d8 k3, PS) | 26% | 
TAAGCAGAATTGTGAA (sugars kkdddddddddkekek, PS) | 29% | 
TAAGCTGAGAGTTCTA (sugars k3 d9 k3 e1, PS) | 48% | 
TAAGTGTAAGAGACAT (sugars k3 d10 k3, PS) | 63% | 
TAATAATGGGCAGAGC (sugars k3 d10 k3, PS) | 30% | 
TAATACATTAGCAAGC (sugars k3 d9 k3 e1, PS) | 35% | 
TAATATTGAGGCACTG (sugars k3 d10 k3, PS) | 33% | 
TAATGGTAAACTGTAT (sugars k3 d10 k3, PS) | 32% | 
TAATTACAACCTGGTT (sugars k3 d10 k3, PS) | 52% | 
TAATTTTTGAGCCTAA (sugars k3 d10 k3, PS) | 41% | 
TACACTAATATTGAGG (sugars k3 d10 k3, PS) | 30% | 
TACACTGACAACCCTT (sugars k3 d10 k3, PS) | 56% | 
TACAGATTGGAATGCT (sugars k3 d1 m1 d8 k3, PS) | 60% | 

Sequence | target mRNA inhibition (1 µM) | also measured
TACAGATTGGAATGCT (sugars k3 d10 k3, PS) | 46% | 
TACAGTAGGCAGTTTC (sugars k3 d10 k3, PS) | 60% | 
TACATATCTTACTCTG (sugars k3 d10 k3, PS) | 40% | 
TACCACATACGCATGC (sugars k3 d10 k3, PS) | 33% | 
TACCTCTAAGTTAGCC (sugars k3 d9 k3 e1, PS) | 30% | 
TACCTCTAAGTTAGCC (sugars kkdddddddddkekek, PS) | 20% | 
TACGATGGAACAAAAA (sugars k3 d10 k3, PS) | 20% | 
TACTTGAACAGTCTTA (sugars kkdddddddddkekek, PS) | 60% | 
TAGAACACTTGCCTCA (sugars k3 d10 k3, PS) | 31% | 
TAGAACTCCCAACCCA (sugars k3 d10 k3, PS) | 44% | 
TAGAACTGTGTTGCTT (sugars k3 d10 k3, PS) | 78% | target mRNA inhibition (0.02 µM): 14%; target mRNA inhibition (0.078 µM): 27%; target mRNA inhibition (0.313 µM): 57%; target mRNA inhibition (1.25 µM): 78%; target mRNA inhibition (5 µM): 90%
TAGAATAGTCTTCAGC (sugars kkdddddddddkekek, PS) | 50% | 
TAGAGTCGGTCACCTT (sugars k3 d9 k3 e1, PS) | 59% | 
TAGCTGTGCACTCATT (sugars kkdddddddddkekek, PS) | 53% | 
TAGCTTTTGTCCACCT (sugars k3 d9 k3 e1, PS) | 65% | 
TAGGAACATTCCCTCT (sugars k3 d10 k3, PS) | 24% | 
TAGGCAGTAAAGTGCT (sugars k3 d10 k3, PS) | 48% | 
TAGGGAGGTAGCTTTT (sugars k3 d10 k3, PS) | 46% | 
TAGTAATCACAAGTAA (sugars k3 d10 k3, PS) | 30% | 
TAGTCCATGCAAAAGC (sugars k3 d10 k3, PS) | 66% | 
TAGTGAACATACATTG (sugars k3 d10 k3, PS) | 23% | 
TAGTGCCAAACCAATG (sugars k3 d1 m1 d8 k3, PS) | 55% | 
TAGTGGACTTCATTAG (sugars k3 d1 m1 d8 k3, PS) | 34% | 
TAGTGGACTTCATTAG (sugars k3 d10 k3, PS) | 52% | 
TAGTGTAAGCTGAGAG (sugars k3 d1 m1 d8 k3, PS) | 31% | 
TAGTTAGAATAGTCTT (sugars k3 d10 k3, PS) | 23% | 

Sequence | target mRNA inhibition (1 µM) | also measured
TAGTTATCTTCTCACT (sugars k3 d10 k3, PS) | 52% | 
TATAACTACAAGAGGT (sugars k3 d10 k3, PS) | 46% | 
TATACGATGGAACAAA (sugars k3 d10 k3, PS) | 4% | 
TATAGGTAGCTAATGT (sugars k3 d10 k3, PS) | 31% | 
TATAGTAATCACAAGT (sugars k3 d10 k3, PS) | 53% | 
TATAGTTATCTTCTCA (sugars k3 d1 m1 d8 k3, PS) | 33% | 
TATAGTTATCTTCTCA (sugars k3 d10 k3, PS) | 46% | 
TATATACTAGGATTAG (sugars k3 d10 k3, PS) | 10% | 
TATATGTTGATGTTAC (sugars k3 d10 k3, PS) | 34% | 
TATCAACCTGCACACC (sugars k3 d10 k3, PS) | 62% | 
TATCTATTATGCACTC (sugars k3 d10 k3, PS) | 48% | 
TATCTTAAGAGAAGGT (sugars k3 d10 k3, PS) | 29% | 
TATGAAGTTAGTATAG (sugars k3 d9 k3 e1, PS) | 13% | 
TATGAAGTTAGTATAG (sugars kkdddddddddkekek, PS) | 47% | 
TATGACAACTGGAGGT (sugars k3 d10 k3, PS) | 14% | 
TATGTAATAGCCAGTA (sugars kkdddddddddkekek, PS) | 78% | target mRNA inhibition (0.02 µM): 9%; target mRNA inhibition (0.078 µM): 33%; target mRNA inhibition (0.313 µM): 58%; target mRNA inhibition (1.25 µM): 67%; target mRNA inhibition (5 µM): 85%
TATTAAGTACTGTGAG (sugars k3 d10 k3, PS) | 0% | 
TATTAGAAGTCAGCCC (sugars k3 d9 k3 e1, PS) | 32% | 
TATTATGTGATTGAGT (sugars k3 d10 k3, PS) | 86% | target mRNA inhibition (0.02 µM): 60% and 50%; target mRNA inhibition (0.078 µM): 69%; target mRNA inhibition (0.313 µM): 68%; target mRNA inhibition (1.25 µM): 76%
TATTCTGTGGCATGGC (sugars k3 d1 m1 d8 k3, PS) | 55% | 
TATTCTGTGGCATGGC (sugars kkdddddddddkekek, PS) | 57% | 
TATTCTTATGTCATCC (sugars k3 d10 k3, PS) | 75% | 
TATTGGTAAGTATTCC (sugars k3 d1 m1 d8 k3, PS) | 41% | 
TCAAAACCTTTGTTGC (sugars k3 d10 k3, PS) | 6% | 
TCAAGTAATAAAGTCC (sugars k3 d10 k3, PS) | 49% | 
TCACAATCTAGCAACC (sugars k3 d10 k3, PS) | 4% | 

Sequence | target mRNA inhibition (1 µM) | also measured
TCACCACGATTGTTAC (sugars k3 d10 k3, PS) | 34% | 
TCACCTTTCATAATGT (sugars k3 d1 m1 d8 k3, PS) | 47% | 
TCACCTTTCATAATGT (sugars k3 d10 k3, PS) | 63% | 
TCACTATATTGCATTC (sugars k3 d10 k3, PS) | 35% | 
TCAGAACAGTTCAACT (sugars k3 d10 k3, PS) | 30% | 
TCAGACTTCTTACGAC (sugars k3 d10 k3, PS) | 36% | 
TCAGTAGAGAGCATAA (sugars k3 d10 k3, PS) | 52% | 
TCAGTATCCCCTCAAA (sugars k3 d10 k3, PS) | 64% | 
TCAGTCCTTGTGTAGT (sugars k3 d10 k3, PS) | 72% | 
TCATAAAGGTGGGATA (sugars k3 d10 k3, PS) | 40% | 
TCATACCACATACCCA (sugars k3 d10 k3, PS) | 41% | 
TCATAGCTCACTTAGT (sugars k3 d10 k3, PS) | 0% | 
TCATAGTTCAAATTGG (sugars k3 d10 k3, PS) | 47% | 
TCATAGTTTATATGGA (sugars k3 d10 k3, PS) | 44% | 
TCATCGATGGAAGAAG (sugars k3 d10 k3, PS) | 24% | 
TCATTTAGAATACGCT (sugars k3 d10 k3, PS) | 20% | 
TCATTTAGCAGCTTGG (sugars k3 d10 k3, PS) | 79% | target mRNA inhibition (0.02 µM): 12%; target mRNA inhibition (0.078 µM): 31%; target mRNA inhibition (0.313 µM): 43%; target mRNA inhibition (1.25 µM): 87%; target mRNA inhibition (5 µM): 84%
TCATTTTTAATACGAC (sugars k3 d10 k3, PS) | 48% | 
TCCAAATCAGGTAGTT (sugars k3 d10 k3, PS) | 22% | 
TCCAAGTAGGAGTAGA (sugars k3 d10 k3, PS) | 24% | 
TCCAATACAGGCCATA (sugars k3 d10 k3, PS) | 62% | 
TCCAGAATAGAGTTGC (sugars k3 d10 k3, PS) | 46% | 
TCCATAATAATAGCTC (sugars k3 d10 k3, PS) | 69% | 
